Test [1] deals with nitric oxide (NO) production. Nature of the test: LPS-induced nitric oxide (NO) production in RAW264.7 macrophages (Griess reagent). It counts as cell-based. The settings on record: LPS 500 ng/ml, 24 hours, extract 50, 100, 200 ppm, apigenin-7-O-glucuronide 50, 100, 200 μM. As to the method:
To confirm the NO-reducing effect of the extract of Potentilla chinensis from Example 1 and apigenin-7-O-glucuronide from Example 2, an inflammatory response was induced with LPS and subsequent changes in NO were measured. Specifically, RAW264.7 macrophages were obtained from the American Type Culture Collection (ATCC, MD, USA) and cultured in DMEM (Dulbecco's Modified Eagle's Medium) containing 10% FBS and 1% antibiotic-antimycotic under 5% CO2 at 37° C. The cells were seeded into 6-well plates at a density of 8.0×10^5 cells/1.5 mL/well and allowed to adhere for 24 hours, then treated with LPS (500 ng/ml) to induce inflammation. The extract of Potentilla chinensis from Example 1 was added at concentrations of 50, 100, and 200 ppm, and apigenin-7-O-glucuronide from Example 2 was added at concentrations of 50, 100, and 200 μM, followed by incubation for 24 hours. Next, 100 μL of the culture supernatant was transferred to a 96-well plate, mixed with 100 μL of Griess reagent (0.1% N-(1-naphtyl)ethylenediamine, 1% sulfanilamide), and reacted for 10 minutes. The absorbance of the resulting azo-derivative was measured at 540 nm using a microplate reader (BioTek, Vermont, USA). The measured absorbance was converted into nitrite concentration using a standard curve prepared with sodium nitrite dilutions, and the amount of NO produced was calculated.
For orientation: Nitrite, measured by Griess reagent, commonly stands in for NO production.

For test [2], the system named is IL-1β mRNA. Nature of the test: LPS-induced IL-1β mRNA expression in RAW264.7 macrophages (real-time PCR). The settings on record: LPS 500 ng/mL, 24 hours, extract 50, 100, 200 ppm, apigenin-7-O-glucuronide 50, 100, 200 μM. Format: cell-based. As to the method: (§1) Specifically, RAW264.7 macrophages were obtained from the American Type Culture Collection (ATCC, MD, USA) and cultured in DMEM medium containing 10% FBS and 1% antibiotic-antimycotic under 5% CO2 at 37° C. The cells were seeded into 6-well plates at a density of 8.0×10^5 cells/1.5 mL/well and allowed to adhere for 24 hours, then treated with LPS (500 ng/mL) in DMEM to induce inflammation. The extract of Potentilla chinensis from Example 1 was treated at concentrations of 50, 100, and 200 ppm, and apigenin-7-O-glucuronide from Example 2 was treated at concentrations of 50, 100, and 200 μM, followed by incubation for 24 hours. After 24 hours, IL-1β mRNA was extracted from the cells, synthesized into cDNA, and quantitative real-time PCR was performed using specific primers to evaluate the expression level of IL-1β.
In general terms: In qPCR the cycle at which signal appears reflects the starting amount.

The test system of test [3] is COX-2 mRNA. Description: LPS-induced COX-2 mRNA expression in RAW264.7 macrophages (real-time PCR). As to conditions: LPS 500 ng/mL, 24 hours, extract 50, 100, 200 ppm, apigenin-7-O-glucuronide 50, 100, 200 μM. Format: cell-based. As to the method: as §1, with “To confirm the inhibitory efficacy of the extract of Potentilla chinensis from Example 1 and apigenin-7-O-glucuronide from Example 2 on LPS-induced COX-2 mRNA expression, the expression level of COX-2 mRNA was measured using real-time polymerase chain reaction (PCR). Specifically,” for “Specifically,”, “cells/2.0” for “cells/1.5”, “COX-2” for “IL-1β”, “COX-2.” for “IL-1β.”

Test [4] deals with MMP-1. Nature of the test: PMA-induced MMP-1 secretion in SW-1353 chondrocytes (ELISA). The settings on record: PMA 50 ng/mL, 24 hours, extract 50, 100, 200 ppm, apigenin-7-O-glucuronide 50, 100, 200 μM. It counts as cell-based, Human. As to the method:
To evaluate the inhibitory efficacy of the extract of Potentilla chinensis from Example 1 and apigenin-7-O-glucuronide from Example 2 on PMA-induced MMP-1 production in chondrocytes, the amount of MMP-1 secreted was measured using a Human MMP-1 ELISA kit (ab100603, Abcam, USA). Specifically, SW-1353 chondrocytes were obtained from the American Type Culture Collection (ATCC, MD, USA) and cultured in DMEM medium containing 10% FBS and 1% antibiotic-antimycotic under 5% CO2 at 37° C. The cells were seeded into 6-well plates at a density of 2.0×10^5 cells/2.0 mL/well and allowed to adhere for 24 hours, then treated with PMA (50 ng/mL) in DMEM. The extract of Potentilla chinensis from Example 1 was treated at concentrations of 50, 100, and 200 ppm, and apigenin-7-O-glucuronide from Example 2 was treated at concentrations of 50, 100, and 200 μM, followed by incubation for 24 hours. After 24 hours, the amount of MMP-1 in the supernatant was quantified using the ELISA kit, and the results are shown in FIGS. 6A and 6B.
Background: In an ELISA, binding on a coated surface is turned into a signal by an enzyme label.

For test [5], the system named is MMP-9. Nature of the test: PMA-induced MMP-9 secretion in SW-1353 chondrocytes (ELISA). It counts as cell-based, Human. As to conditions: PMA 50 ng/mL, 24 hours, apigenin-7-O-glucuronide 50, 100, 200 μM. How it is done: To evaluate the inhibitory efficacy of apigenin-7-O-glucuronide from Example 2 on PMA-induced MMP-9 production in chondrocytes, the amount of MMP-9 secreted was measured using a Human MMP-9 ELISA kit (ab246539, Abcam, USA). Specifically, SW-1353 chondrocytes were obtained from the American Type Culture Collection (ATCC, MD, USA) and cultured in DMEM medium containing 10% FBS and 1% antibiotic-antimycotic under 5% CO2 at 37° C. The cells were seeded into 6-well plates at a density of 2.0×10^5 cells/2.0 mL/well and allowed to adhere for 24 hours, then treated with PMA (50 ng/mL) in DMEM. The extract of Potentilla chinensis from Example 1 was treated at concentrations of 50, 100, and 200 ppm, and apigenin-7-O-glucuronide from Example 2 was treated at concentrations of 50, 100, and 200 μM, followed by incubation for 24 hours. After 24 hours, the amount of MMP-1 in the supernatant was quantified using the ELISA kit, and the results are shown in FIG. 8.

Test [6] relates to Collagen Type II Alpha 1. Description: IL-1β-induced Collagen Type II Alpha 1 synthesis in SW-1353 chondrocytes (ELISA). It counts as cell-based, Human. As to conditions: IL-1β 40 ng/ml, 24 hours, extract 50, 100, 200 ppm, apigenin-7-O-glucuronide 50, 100, 200 μM. How it is done: To evaluate the stimulatory efficacy of the extract of Potentilla chinensis from Example 1 and apigenin-7-O-glucuronide from Example 2 on IL-1β-induced Collagen Type II Alpha 1 synthesis in chondrocytes, the secretion of Collagen Type II Alpha 1 was measured using a Human Collagen II Alpha 1 ELISA kit (NBP2-75853, Novus, USA). Specifically, SW-1353 chondrocytes were obtained from the American Type Culture Collection (ATCC, MD, USA) and cultured in DMEM medium containing 10% FBS and 1% antibiotic-antimycotic under 5% CO2 at 37° C. The cells were seeded into 6-well plates at a density of 2.0×10^5 cells/2.0 mL/well and allowed to adhere for 24 hours, then treated with IL-1β (40 ng/ml) in DMEM. The extract of Potentilla chinensis from Example 1 was treated at concentrations of 50, 100, and 200 ppm, and apigenin-7-O-glucuronide from Example 2 was treated at concentrations of 50, 100, and 200 μM, followed by incubation for 24 hours. After 24 hours, the amount of Collagen II Alpha 1 in the supernatant was quantified using the ELISA kit, and the results are shown in FIGS. 9A and 9B.

Results on 1 molecule are retold here after patent US20260263547A1, “COMPOSITION FOR PREVENTING, AMELIORATING, OR TREATING ARTHRITIS, CONTAINING POTENTILLA CHINENSIS EXTRACT OR APIGENIN-7-O-GLUCURONIDE AS ACTIVE INGREDIENT” (BELABELBIO INC., priority 2023, published 2026).

Take `O=C(O)[C@H]1O[C@@H](Oc2cc(O)c3c(=O)cc(-c4ccc(O)cc4)oc3c2)[C@H](O)[C@@H](O)[C@@H]1O` [apigenin-7-O-glucuronide]: the “LPS-induced NO production” value in test [1] is given as “significantly inhibited NO production in a concentration-dependent manner”. Also, the “LPS-induced IL-1β mRNA expression” value in test [2] is reported as “significantly inhibited IL-1β mRNA expression in a concentration-dependent manner”. In test [3], the “LPS-induced COX-2 mRNA expression” value was “significantly inhibited COX-2 mRNA expression”. The “PMA-induced MMP-1 secretion” value in test [4] is “significantly inhibited MMP-1 secretion in a concentration-dependent manner”. Also, the “PMA-induced MMP-9 secretion” value in test [5] was “significantly inhibited MMP-9 secretion in a concentration-dependent manner”. Moreover, the “IL-1β-induced Collagen Type II Alpha 1 synthesis” value in test [6] was “significantly increased Collagen Type II Alpha 1 synthesis in a concentration-dependent manner”.
